Test [1] deals with K562 cells (BCR-ABL positive). Nature of the test: Half inhibitory concentration (IC50) on tumor cells, CCK-8, K562. As to conditions: read-out: IC50 (nM)/K562 cell line.
Procedure: Determination of Half Inhibitory Concentration (IC50) of PROTAD Compounds on Tumor Cells
K562 cells were seeded in 100 μL of RPMI1640 complete medium at a density of 20,000 cells/well. 100 μL of the inoculated cells were treated with 100 μL diluted PROTAD compound of the present disclosure to be tested at 9 successively decreasing concentrations (starting at the highest concentration of 10 μM; 3-fold serial dilutions). After the cells were treated with the tested drugs for 48 hours, the cell viability determination was performed in accordance with CCK-8 reagent operating instructions. The negative control was DMSO, and positive control was a commercial inhibitor. After CCK-8 treatment for 2 h, the value of O.D.450 was measured using a microplate reader.
A further test has as its system U937 cells. Nature of the test: Proliferation inhibition (IC50) on non-BCR-ABL-positive U937 cells.
The subject of another test is HEK293 cells. In words: Proliferation inhibition (IC50) on non-BCR-ABL-positive HEK293 cells.
Another test deals with MM1S cells. In words: Half inhibitory concentration (IC50) on MM1S tumor cell proliferation (CCK-8). Type of test: cell-based. As to conditions: Homo sapiens, MM1.S, MM1S cell proliferation inhibitory activity, 72 hours of treatment, read-out: IC50(nM)/MM1S cell line. As to the method:
The multiple myeloma cell line used was: MM1S (myeloma (immunoglobulin A lambda), B lymphoblasts), purchased from American Type Culture Collection (ATCC). The medium is RPMI1640 supplemented with 10% FBS and 1% Penicillin-Streptomycin (penicillin and streptomycin). The cells used were identified as correct cells by STR cells, and were negative for mycoplasma through routine inspections.
The cells used in this present disclosure were cultured in a 37° C. incubator containing 5% CO2. The complete cell culture medium was RPMI 1640 medium with 10% fetal bovine serum, and the final concentrations of penicillin and streptomycin were 100 U/mL, respectively.
MM1S cells were seeded in 100 μL RPMI1640 complete medium at a density of 15000 cells/well. 100 μL of the inoculated cells were treated with 0.5 μL diluted thio-substituted compound of formula (IV) to be tested of the present disclosure at 10 successively decreasing concentrations (starting at the highest concentration of 10 μM/1 μM; 5-fold serial dilutions). After 72 hours of treatment, the cell viability was determined according to the CCK-8 reagent operating instructions. The negative control was DMSO, and the positive control was a commercial inhibitor. After CCK-8 treatment for 2 h, the value of O.D.450 was measured using a microplate reader.

The next test has as its target BCR-ABL (Homo sapiens, UniProt P00519). Nature of the test: Western-blot half-degradation concentration (DC50) / degradation of BCR-ABL in K562 cells. As to conditions: read-out: DC50 (nM)/K562 cell line, BCR-ABL protein degradation, 24 hours, Western-blot.
The mark [2] stands for this setting: Homo sapiens, U-937, read-out: IC50 (nM)/U937 cell line.
The mark [3] stands for this setting: Homo sapiens, HEK293, read-out: IC50 (nM)/HEK293 cell line.

Molecules are shown by their SMILES. Where two headings read alike, the source gives them in different places.

BCR-ABL, sequence (P00519 with tags, fused parts or gaps): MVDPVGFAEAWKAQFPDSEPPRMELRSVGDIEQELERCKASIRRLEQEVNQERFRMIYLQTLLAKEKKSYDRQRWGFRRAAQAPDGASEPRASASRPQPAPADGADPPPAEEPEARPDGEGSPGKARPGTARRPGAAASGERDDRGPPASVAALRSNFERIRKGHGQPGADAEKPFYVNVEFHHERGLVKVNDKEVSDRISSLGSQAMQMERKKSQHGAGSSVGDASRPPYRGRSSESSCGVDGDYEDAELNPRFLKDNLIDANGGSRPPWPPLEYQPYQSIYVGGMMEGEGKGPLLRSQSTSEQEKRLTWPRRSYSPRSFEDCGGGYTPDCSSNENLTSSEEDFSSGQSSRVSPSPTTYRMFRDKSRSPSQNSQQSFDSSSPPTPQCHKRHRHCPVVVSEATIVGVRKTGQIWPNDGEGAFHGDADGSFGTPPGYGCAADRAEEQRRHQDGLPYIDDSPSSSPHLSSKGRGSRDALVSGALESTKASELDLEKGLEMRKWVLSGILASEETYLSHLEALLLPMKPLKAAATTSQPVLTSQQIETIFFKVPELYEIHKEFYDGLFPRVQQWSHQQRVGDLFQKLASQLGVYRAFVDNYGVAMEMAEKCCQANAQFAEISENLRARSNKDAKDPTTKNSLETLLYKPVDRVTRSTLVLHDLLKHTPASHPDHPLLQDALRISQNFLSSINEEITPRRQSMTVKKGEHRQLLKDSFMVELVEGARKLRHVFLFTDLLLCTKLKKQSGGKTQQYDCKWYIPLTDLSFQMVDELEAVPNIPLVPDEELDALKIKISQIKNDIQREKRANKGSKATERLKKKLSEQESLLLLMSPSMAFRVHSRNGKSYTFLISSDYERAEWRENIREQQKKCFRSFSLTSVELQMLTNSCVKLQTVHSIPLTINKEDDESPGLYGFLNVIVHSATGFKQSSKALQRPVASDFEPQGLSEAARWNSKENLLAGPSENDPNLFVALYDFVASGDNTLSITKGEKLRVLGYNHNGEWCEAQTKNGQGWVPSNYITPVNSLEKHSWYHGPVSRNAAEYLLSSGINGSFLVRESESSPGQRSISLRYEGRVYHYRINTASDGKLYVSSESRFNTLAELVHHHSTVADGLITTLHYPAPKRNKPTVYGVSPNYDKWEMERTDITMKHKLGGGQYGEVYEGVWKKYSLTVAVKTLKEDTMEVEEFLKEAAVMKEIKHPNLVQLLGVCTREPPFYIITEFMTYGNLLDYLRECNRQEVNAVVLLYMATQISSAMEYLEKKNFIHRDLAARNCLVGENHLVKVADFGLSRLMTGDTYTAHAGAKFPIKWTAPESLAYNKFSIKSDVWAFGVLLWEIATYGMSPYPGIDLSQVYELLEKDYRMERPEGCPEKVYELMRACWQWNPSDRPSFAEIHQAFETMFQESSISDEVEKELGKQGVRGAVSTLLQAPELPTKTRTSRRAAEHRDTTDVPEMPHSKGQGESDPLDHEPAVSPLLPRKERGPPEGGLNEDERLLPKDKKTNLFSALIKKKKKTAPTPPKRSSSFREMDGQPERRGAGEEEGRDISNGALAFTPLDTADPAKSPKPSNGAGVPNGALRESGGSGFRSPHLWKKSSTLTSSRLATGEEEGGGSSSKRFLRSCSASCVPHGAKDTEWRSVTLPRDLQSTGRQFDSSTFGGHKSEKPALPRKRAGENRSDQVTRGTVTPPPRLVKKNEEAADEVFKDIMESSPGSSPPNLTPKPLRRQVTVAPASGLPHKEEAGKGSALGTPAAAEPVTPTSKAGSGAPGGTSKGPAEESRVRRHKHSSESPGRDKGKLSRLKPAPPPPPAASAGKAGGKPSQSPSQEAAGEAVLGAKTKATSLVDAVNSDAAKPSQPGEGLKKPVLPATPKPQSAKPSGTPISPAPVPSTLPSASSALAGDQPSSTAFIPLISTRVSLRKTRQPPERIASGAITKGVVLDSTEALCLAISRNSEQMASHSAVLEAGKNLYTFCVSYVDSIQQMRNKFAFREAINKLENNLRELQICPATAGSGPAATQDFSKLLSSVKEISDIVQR

Consider `COc1cc(Nc2c(C#N)cnc3cc(OCCCN4CCN(C)CC4)c(OC)cc23)c(Cl)cc1Cl` [Bosutinib, reference compound], for which the IC50 in test [1] (Homo sapiens, K562, 48 h) is 92.6 nM; in the test on U937 cells (setting [2]), over 10000 nM; in the test on HEK293 cells (setting [3]), over 10000 nM.

For `Nc1cccc2c1C(=O)N(C1CCC(=O)NC1=O)C2=O` (stereo not shown) [Pomalidomide, reference compound], the IC50 with MM1S cells amounted to 9.38 nM.

With `Cc1nc(Nc2ncc(C(=O)Nc3c(C)cccc3Cl)s2)cc(N2CCN(C(=O)CS(=O)(=O)c3cccc4c3C(=O)N(C3CCC(=O)NC3=O)C4=O)CC2)n1` (stereo not shown) [SIAIS151108, N-(2-chloro-6-methylphenyl)-2-((6-(4-(2-((2-(2,6-dioxopiperidin-3-yl)-1,3-dioxoisoindolin-4-yl)sulfonyl)acetyl)piperazin-1-yl)-2-methylpyrimidin-4-yl)amino)thiazole-5-carboxamide], the IC50 in test [1] (Homo sapiens, K562, 48 h) is 206 nM; in the test with U937 cells (setting [2]) it was over 10000 nM; in the test on HEK293 cells (setting [3]) it was over 10000 nM. The DC50 on BCR-ABL was 245 nM.

Take `Cc1nc(Nc2ncc(C(=O)Nc3c(C)cccc3Cl)s2)cc(N2CCN(C(=O)C[S+]([O-])c3cccc4c3C(=O)N(C3CCC(=O)NC3=O)C4=O)CC2)n1` (stereo not shown) [SIAIS151109, N-(2-chloro-6-methylphenyl)-2-((6-(4-(2-((2-(2,6-dioxopiperidin-3-yl)-1,3-dioxoisoindolin-4-yl)sulfinyl)acetyl)piperazin-1-yl)-2-methylpyrimidin-4-yl)amino)thiazole-5-carboxamide]: the IC50 in test [1] (Homo sapiens, K562, 48 h) is 148 nM; in the test with U937 cells (setting [2]) it was over 10000 nM; with HEK293 cells (setting [3]) it was over 10000 nM. Also, the DC50 at BCR-ABL was determined as 483 nM.

As to `Cc1nc(Nc2ncc(C(=O)Nc3c(C)cccc3Cl)s2)cc(N2CCN(C(=O)CSc3cccc4c3C(=O)N(C3CCC(=O)NC3=O)C4=O)CC2)n1` (stereo not shown) [SIAIS151110, N-(2-chloro-6-methylphenyl)-2-((6-(4-(2-((2-(2,6-dioxopiperidin-3-yl)-1,3-dioxoisoindolin-4-yl)thio)acetyl)piperazin-1-yl)-2-methylpyrimidin-4-yl)amino)thiazole-5-carboxamide], the IC50 in test [1] (Homo sapiens, K562, 48 h) was 3.2 nM; with U937 cells (setting [2]), over 10000 nM; with HEK293 cells (setting [3]) it was over 10000 nM. The DC50 at BCR-ABL is under 1 nM.

For the compound `Cc1nc(Nc2ncc(C(=O)Nc3c(C)cccc3Cl)s2)cc(N2CCN(C(=O)CSc3cccc4c3CN(C3CCC(=O)NC3=O)C4=O)CC2)n1` (stereo not shown) [SIAIS171105, N-(2-chloro-6-methylphenyl)-2-((6-(4-(2-((2-(2,6-dioxopiperidin-3-yl)-1-oxoisoindolin-4-yl)thio)acetyl)piperazin-1-yl)-2-methylpyrimidin-4-yl)amino)thiazole-5-carboxamide], the IC50 in test [1] (Homo sapiens, K562, 48 h) was 5.71 nM; with U937 cells (setting [2]) it was over 10000 nM; in the test with HEK293 cells (setting [3]) it was over 10000 nM. Besides, on BCR-ABL, the DC50 is 56.7 nM.

As to `Cc1nc(Nc2ncc(C(=O)Nc3c(C)cccc3Cl)s2)cc(N2CCN(C(=O)CCSc3cccc4c3CN(C3CCC(=O)NC3=O)C4=O)CC2)n1` (stereo not shown) [SIAIS171106, N-(2-chloro-6-methylphenyl)-2-((6-(4-(3-((2-(2,6-dioxopiperidin-3-yl)-1-oxoisoindolin-4-yl)thio)propanoyl)piperazin-1-yl)-2-methylpyrimidin-4-yl)amino)thiazole-5-carboxamide], the IC50 in test [1] (Homo sapiens, K562, 48 h) is 1.74 nM; in the test with U937 cells (setting [2]) it was over 10000 nM; in the test with HEK293 cells (setting [3]), over 10000 nM. Also, the DC50 on BCR-ABL is 10.3 nM.

Consider `Cc1nc(Nc2ncc(C(=O)Nc3c(C)cccc3Cl)s2)cc(N2CCN(C(=O)CCCSc3cccc4c3CN(C3CCC(=O)NC3=O)C4=O)CC2)n1` (stereo not shown) [SIAIS171107, N-(2-chloro-6-methylphenyl)-2-((6-(4-(4-((2-(2,6-dioxopiperidin-3-yl)-1-oxoisoindolin-4-yl)thio)butanoyl)piperazin-1-yl)-2-methylpyrimidin-4-yl)amino)thiazole-5-carboxamide], for which the IC50 is 1.4 nM in test [1] (Homo sapiens, K562, 48 h); over 10000 nM with U937 cells (setting [2]); over 10000 nM with HEK293 cells (setting [3]). The DC50 at BCR-ABL stood at 5.2 nM.

For the compound `Cc1nc(Nc2ncc(C(=O)Nc3c(C)cccc3Cl)s2)cc(N2CCN(C(=O)CCCCCCSc3cccc4c3CN(C3CCC(=O)NC3=O)C4=O)CC2)n1` (stereo not shown) [SIAIS171110, N-(2-chloro-6-methylphenyl)-2-((6-(4-(7-((2-(2,6-dioxopiperidin-3-yl)-1-oxoisoindolin-4-yl)thio)heptanoyl)piperazin-1-yl)-2-methylpyrimidin-4-yl)amino)thiazole-5-carboxamide], the IC50 in test [1] (Homo sapiens, K562, 48 h) was 1.33 nM; with U937 cells (setting [2]) it was over 10000 nM; in the test with HEK293 cells (setting [3]), over 10000 nM.

For `NCCSc1cccc2c1CN(C1CCC(=O)NC1=O)C2=O` (stereo not shown) [SIAIS171123, 3-(4-((2-aminoethyl)thio)-1-oxoisoindolin-2-yl)piperidine-2,6-dione], the IC50 with MM1S cells turned out to be 71.4 nM.

As for `NCCCSc1cccc2c1CN(C1CCC(=O)NC1=O)C2=O` (stereo not shown) [SIAIS171124, 3-(4-((3-aminopropyl)thio)-1-oxoisoindolin-2-yl)piperidine-2,6-dione], the IC50 in the test with MM1S cells amounted to 56.9 nM.

For `NCCCCSc1cccc2c1CN(C1CCC(=O)NC1=O)C2=O` (stereo not shown) [SIAIS171131, 3-(4-((4-aminobutyl)thio)-1-oxoisoindolin-2-yl)piperidine-2,6-dione], in the test with MM1S cells, the IC50 stood at 6.61 nM.

With `NCCCCCSc1cccc2c1CN(C1CCC(=O)NC1=O)C2=O` (stereo not shown) [SIAIS171132, 3-(4-((5-aminopentyl)thio)-1-oxoisoindolin-2-yl)piperidine-2,6-dione], in the test on MM1S cells, the IC50 was determined as 8.27 nM.

As to `NCCCCCCSc1cccc2c1CN(C1CCC(=O)NC1=O)C2=O` (stereo not shown) [SIAIS171134, 3-(4-((6-aminohexyl)thio)-1-oxoisoindolin-2-yl)piperidine-2,6-dione], in the test on MM1S cells, the IC50 is 4.77 nM.

For `NCCCCCCCSc1cccc2c1CN(C1CCC(=O)NC1=O)C2=O` (stereo not shown) [SIAIS171135, 3-(4-((7-aminoheptyl)thio)-1-oxoisoindolin-2-yl)piperidine-2,6-dione], in the test on MM1S cells, the IC50 was 4.31 nM.

For the compound `NCCCCCCCCSc1cccc2c1CN(C1CCC(=O)NC1=O)C2=O` (stereo not shown) [SIAIS171136, 3-(4-((8-aminooctyl)thio)-1-oxoisoindolin-2-yl)piperidine-2,6-dione], in the test with MM1S cells, the IC50 was found to be 4.22 nM.

Take `O=C1CCC(N2Cc3c(SCCCCCCBr)cccc3C2=O)C(=O)N1` (stereo not shown) [SIAIS1216133, 3-(4-(6-bromohexylthio)-1-oxoisoindolin-2-yl)piperidine-2,6-dione]: in the test with MM1S cells, the IC50 came out at 1.27 ± 0.13 nM.

For `O=C1CCC(N2Cc3c(SCCCCCCCBr)cccc3C2=O)C(=O)N1` (stereo not shown) [SIAIS1216135, 3-(4-(7-bromoheptylthio)-1-oxoisoindolin-2-yl)piperidine-2,6-dione], the IC50 in the test with MM1S cells stood at 1.23 ± 0.42 nM.

Regarding `O=C1CCC(N2Cc3c(SCCCCCCCCBr)cccc3C2=O)C(=O)N1` (stereo not shown) [SIAIS1216137, 3-(4-((8-bromooctyl)thio)-1-oxoisoindolin-2-yl)piperidine-2,6-dione], the IC50 with MM1S cells amounted to 1.58 ± 0.71 nM.

For the compound `O=C1CCC(N2Cc3c(SCCCCCCCCCCBr)cccc3C2=O)C(=O)N1` (stereo not shown) [SIAIS1220013, 3-(4-((10-bromodecyl)thio)-1-oxoisoindolin-2-yl)piperidine-2,6-dione], the IC50 with MM1S cells is 1.98 nM.

For the compound `O=C1CCC(N2Cc3c(SCCCCCCCCCCCBr)cccc3C2=O)C(=O)N1` (stereo not shown) [SIAIS1220015, 3-(4-((11-bromoundecyl)thio)-1-oxoisoindolin-2-yl)piperidine-2,6-dione], the IC50 in the test with MM1S cells was found to be 3.45 nM.

As to `Cc1nc(Nc2ncc(C(=O)Nc3c(C)cccc3Cl)s2)cc(N2CCN(C(=O)CCCCCSc3cccc4c3CN(C3CCC(=O)NC3=O)C4=O)CC2)n1` (stereo not shown) [SIAIS 171109], the IC50 is 0.53 nM in test [1] (K562 cells, 48 hours, CCK-8); over 10000 nM with U937 cells (read-out: IC50 (nM)/U937 cell line, U937 cells, highest concentration 10 μM); over 10000 nM in the test with HEK293 cells (read-out: IC50 (nM)/HEK293 cell line, HEK293 cells, highest concentration 10 μM).

The values are drawn from patent publication US12226424B2, “Target protein degradation compounds, their anti-tumor use, their intermediates and use of intermediates” (ShanghaiTech University, priority 2018, dated 2025).
